Experimental data as given in US10584116B2, “Heterocyclic sulfonamide derivative and medicine containing same” (EA Pharma Co., Ltd., priority 2016, dated 2020).

Biological target: human TRPA1 (Homo sapiens (Human), UniProt O75762)
Assay: Measurement of TRPA1 antagonist activity (intracellular calcium increase induced by allylisothiocyanate in 293T cells transfected with human TRPA1)
Assay type: cell-based
Conditions: 293T cells expressing human TRPA1, allylisothiocyanate stimulation, FLIPR Calcium4 fluorescence; read-out: hTRPA1 IC50
Description: Measurement of TRPA1 Antagonist Activity
Human TRPA1 Expression Plasmid
Using cDNA encoding human TRPA1 (GenBank accession No. NM_007332) (manufactured by Kazusa DNA Research Institute, item No. FHC07217) as a template, primer 1 (SEQ ID NO: 1) and primer 2 (SEQ ID NO: 2), PCR by PfuUltra High-Fidelity DNA Polymerase (Stratagene) was performed, and full-length human TRPA1 gene was amplified.
A recognition site (underlined) of restriction enzyme HindIII was added to the 5′ end of human TRPA1 gene, and XbaI site (underlined) was added to the 3′ end of human TRPA1 gene, and GTT of the template sequence was changed to termination codon TAG (bold). The obtained double stranded DNA was enzyme-digested with HindIII and XbaI, and introduced into a multicloning site of expression plasmid pcDNA3.1/zeo(+) (manufactured by Invitrogen) to give a human TRPA1 expression plasmid.
Human embryonic kidney-derived 293T cells were cultured in Dulbecco's Modified Eagle Medium containing 10% fetal bovine serum, 10 unit penicillin, and 10 μg streptomycin. One day before assay, 3×10^6 of 293T cells were plated on a petri dish having a diameter of 10 cm, and cultured in a CO2 incubator for 24 hr. OPTI-MEM I Reduced Serum Media (Invitrogen) (600 μL), Mirus TransIT-293 (Mirus Bio) (18 μL), and human TRPA1 expression plasmid (6 μg) were mixed, the total amount of the mixture was added to the cells on the petri dish to allow for gene transfer. The cells were recovered about for 8 hr later, plated on a poly-D-lysine coated 384 well black/clear bottom plate at 12,000 cells/well, and cultured overnight.
Measurement of Intracellular Calcium Increase
The medium was removed from the 384 well plate, calcium indicator (Molecular Device, trade name: FLIPR Calcium4 Assay Kit) dissolved in HBSS (Thermo Fisher Scientific) (pH 7.2) containing 20 mM HEPES was added (38 μL/well), and the cells were stained in a CO2 incubator for 1 hr. The 384 well plate was stood at room temperature for not less than 15 min, set on FDSS7000 (Hamamatsu Photonics K.K.), and a test substance solution was added at 10 μL/well. After 10 min, allylisothiocyanate solution (12 μL/well) was added, the relative fluorescence intensity was measured for 5 min after addition of the allylisothiocyanate solution.
Test Substance Preparation
Preparation of Test Substance Solution and Allylisothiocyanate Solution
A test substance solution was prepared to have a composition of HBSS (Thermo Fisher Scientific) (pH 7.2) containing 0.48% dimethyl sulfoxide, a test substance at 4.8-fold concentration of the evaluation concentration, 0.1% bovine serum albumin and 20 mM HEPES. An allylisothiocyanate solution was prepared to have a composition of HBSS (Thermo Fisher Scientific) (pH 7.2) containing 0.1% dimethyl sulfoxide, 100 μM allylisothiocyanate, 0.1% bovine serum albumin and 20 mM HEPES.
Calculation of Antagonist Activity
The activity rate of a test substance at each concentration was calculated, wherein the relative fluorescence intensity change of a well free of a test substance and containing allylisothiocyanate is 100% activity rate, and the relative fluorescence intensity change of a well free of a test substance and allylisothiocyanate is 0% activity rate. The inhibitory rate of a test substance at each concentration was calculated by subtracting the activity rate of the test substance from 100% activity rate, and the concentration of a test substance showing 50% inhibitory rate was calculated as IC50 from the sigmoid approximate curve by XLfit (idbs).

human TRPA1, sequence (O75762 whole entry): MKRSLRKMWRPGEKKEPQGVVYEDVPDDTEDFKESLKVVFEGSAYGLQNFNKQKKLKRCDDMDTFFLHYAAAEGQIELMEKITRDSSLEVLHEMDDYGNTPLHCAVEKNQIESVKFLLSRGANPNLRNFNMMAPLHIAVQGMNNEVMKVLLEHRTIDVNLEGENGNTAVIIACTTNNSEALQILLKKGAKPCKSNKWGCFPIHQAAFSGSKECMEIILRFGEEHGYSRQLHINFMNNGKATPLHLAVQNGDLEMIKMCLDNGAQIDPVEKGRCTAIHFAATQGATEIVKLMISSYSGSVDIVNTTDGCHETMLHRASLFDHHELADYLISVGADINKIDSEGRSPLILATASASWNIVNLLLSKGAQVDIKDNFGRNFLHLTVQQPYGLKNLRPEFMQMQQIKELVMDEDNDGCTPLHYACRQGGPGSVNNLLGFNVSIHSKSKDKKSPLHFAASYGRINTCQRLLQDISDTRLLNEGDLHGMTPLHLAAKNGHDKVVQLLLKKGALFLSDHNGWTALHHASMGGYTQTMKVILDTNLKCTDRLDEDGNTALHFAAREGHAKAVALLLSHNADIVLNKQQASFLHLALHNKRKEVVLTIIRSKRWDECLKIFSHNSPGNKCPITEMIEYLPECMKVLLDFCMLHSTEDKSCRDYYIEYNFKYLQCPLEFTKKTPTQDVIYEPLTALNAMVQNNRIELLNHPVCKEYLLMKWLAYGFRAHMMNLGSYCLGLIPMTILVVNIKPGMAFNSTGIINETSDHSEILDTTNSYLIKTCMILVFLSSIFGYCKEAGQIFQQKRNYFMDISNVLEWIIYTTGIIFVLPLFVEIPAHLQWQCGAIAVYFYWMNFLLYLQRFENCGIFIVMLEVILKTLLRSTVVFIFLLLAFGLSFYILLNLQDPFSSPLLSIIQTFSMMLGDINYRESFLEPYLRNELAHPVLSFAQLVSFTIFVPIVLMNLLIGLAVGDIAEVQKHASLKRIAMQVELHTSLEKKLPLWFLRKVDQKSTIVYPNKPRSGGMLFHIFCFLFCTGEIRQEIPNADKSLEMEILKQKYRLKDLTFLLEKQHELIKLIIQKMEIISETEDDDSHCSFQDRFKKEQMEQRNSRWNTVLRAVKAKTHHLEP

| Compound | IC50 [nM] |
| --- | --- |
| CC(C)n1c(=O)c(CNC(=O)[C@@H]2CCCN2S(=O)(=O)c2cc3c(F)cccc3o2)cn(-c2ccc(C(F)(F)F)cc2)c1=O [Example 10, (2S)-1-(4-fluorobenzofuran-2-yl)sulfonyl-N-[[3-isopropyl-2,4-dioxo-1-[4-(trifluoromethyl)phenyl]-pyrimidin-5-yl]methyl]pyrrolidine-2-carboxamide] | 25 |
| CC(C)n1cc(-c2ccc(C(F)(F)F)cc2)cc(CNC(=O)[C@@H]2CCCN2S(=O)(=O)c2cc3ccccc3o2)c1=O [Example 15, (2S)-1-(benzofuran-2-ylsulfonyl)-N-[[1-isopropyl-2-oxo-5-[4-(trifluoromethyl)phenyl]-3-pyridyl]methyl]pyrrolidine-2-carboxamide] | 79 |
| CC(C)n1cc(CNC(=O)[C@@H]2CCCN2S(=O)(=O)c2cc3ccccc3o2)cc(-c2ccc(C(F)(F)F)nc2)c1=O [Example 48, (2S)-1-(benzofuran-2-ylsulfonyl)-N-[[1-isopropyl-6-oxo-5-[6-(trifluoromethyl)-3-pyridyl]-3-pyridyl]methyl]pyrrolidine-2-carboxamide] | 210 |
| CC(C)n1cc(-c2ccc(C(F)(F)F)nc2)cc(CNC(=O)[C@@H]2CCCN2S(=O)(=O)c2cc3ccccc3o2)c1=O [Example 28, (2S)-1-(benzofuran-2-ylsulfonyl)-N-[[1-isopropyl-2-oxo-5-[6-(trifluoromethyl)-3-pyridyl]-3-pyridyl]methyl]pyrrolidine-2-carboxamide] | 180 |
| CC(C)n1c(=O)c(CNC(=O)[C@@H]2CCCN2S(=O)(=O)c2cc3ccccc3o2)cn(-c2ccc(C(F)(F)F)nc2)c1=O [Example 29, (2S)-1-(benzofuran-2-ylsulfonyl)-N-[[3-isopropyl-2,4-dioxo-1-[6-(trifluoromethyl)-3-pyridyl]pyrimidin-5-yl]methyl]pyrrolidine-2-carboxamide] | 30 |
| CC(C)n1c(=O)c(CNC(=O)[C@@H]2CCCN2S(=O)(=O)c2cc3cc(F)ccc3o2)cn(-c2ccc(C(F)(F)F)cn2)c1=O [Example 34, (2S)-1-(5-fluorobenzofuran-2-yl)sulfonyl-N-[[3-isopropyl-2,4-dioxo-1-[5-(trifluoromethyl)-2-pyridyl]pyrimidin-5-yl]methyl]pyrrolidine-2-carboxamide] | 18 |
| CC(C)n1c(=O)c(CNC(=O)[C@@H]2CCCN2S(=O)(=O)c2cc3cnccc3o2)cn(-c2ccc(C(F)(F)F)nc2)c1=O [Example 32, (2S)-1-fro[3,2-c]pyridin-2-ylsulfonyl-N-[[3-isopropyl-2,4-dioxo-1-[6-(trifluoromethyl)-3-pyridyl]pyrimidin-5-yl]methyl]pyrrolidine-2-carboxamide] | 570 |
| CC(C)n1c(=O)c(CNC(=O)[C@@H]2CCCN2S(=O)(=O)c2cc3cc(F)ccc3o2)cn(-c2ccc(Cl)cc2)c1=O [Example 41, (2S)-N-[[1-(4-chlorophenyl)-3-isopropyl-2,4-dioxo-pyrimidin-5-yl]methyl]-1-(5-fluorobenzofuran-2-yl)sulfonyl-pyrrolidine-2-carboxamide] | 24 |
| CC(C)n1c(=O)c(CNC(=O)[C@@H]2[C@@H](O)CCN2S(=O)(=O)c2cc3ccccc3o2)cn(-c2ccc(C(F)(F)F)cc2)c1=O [Example 7, (2S,3S)-1-(benzofuran-2-ylsulfonyl)-3-hydroxy-N-[[3-isopropyl-2,4-dioxo-1-[4-(trifluoromethyl)phenyl]-pyrimidin-5-yl]methyl]pyrrolidine-2-carboxamide] | 220 |
| CC(C)n1cc(CNC(=O)[C@@H]2CCCN2S(=O)(=O)c2cc3ccccc3o2)cc(-c2ccc(C(F)(F)F)cc2)c1=O [Example 13, (2S)-1-(benzofuran-2-ylsulfonyl)-N-[[1-isopropyl-6-oxo-5-[4-(trifluoromethyl)phenyl]-3-pyridyl]methyl]pyrrolidine-2-carboxamide] | 27 |
| CC(C)n1c(=O)c(CNC(=O)[C@@H]2CCCN2S(=O)(=O)c2cc3cc(F)ccc3o2)cn(-c2ccc(F)cc2)c1=O [Example 39] | 100 |
| CC(C)n1cc(-c2ccc(C(F)(F)F)cn2)cc(CNC(=O)[C@@H]2CCCN2S(=O)(=O)c2cc3ccccc3o2)c1=O [Example 42, (2S)-1-(benzofuran-2-ylsulfonyl)-N-[[1-isopropyl-2-oxo-5-[5-(trifluoromethyl)-2-pyridyl]-3-pyridyl]methyl]pyrrolidine-2-carboxamide] | 79 |
| CCn1c(=O)c(CNC(=O)[C@@H]2CCCN2S(=O)(=O)c2cc3ccccc3o2)cn(-c2ccc(C(F)(F)F)cc2)c1=O [Example 2, (2S)-1-(benzofuran-2-ylsulfonyl)-N-[[3-ethyl-2,4-dioxo-1-[4-(trifluoromethyl)phenyl]pyrimidin-5-yl]methyl]pyrrolidine-2-carboxamide] | 26 |
| CC(C)n1cc(CNC(=O)[C@@H]2CCCN2S(=O)(=O)c2cc3cc(F)ccc3o2)cc(-c2ccc(C(F)(F)F)nc2)c1=O [Example 49, (2S)-1-(5-fluorobenzofuran-2-yl)sulfonyl-N-[[1-isopropyl-6-oxo-5-[6-(trifluoromethyl)-3-pyridyl]-3-pyridyl]methyl]pyrrolidine-2-carboxamide] | 45 |
| Cn1c(=O)c(CNC(=O)[C@@H]2CCCN2S(=O)(=O)c2cc3cc(F)ccc3o2)cn(-c2ccc(C(F)(F)F)cc2)c1=O [Example 5, (2S)-1-(5-fluorobenzofuran-2-yl)sulfonyl-N-[[3-methyl-2,4-dioxo-1-[4-(trifluoromethyl)phenyl]-pyrimidin-5-yl]methyl]pyrrolidine-2-carboxamide] | 21 |
| CC(C)n1c(=O)c(CNC(=O)[C@@H]2CCCN2S(=O)(=O)c2cc3cnccc3o2)cn(-c2ccc(C(F)(F)F)cc2)c1=O [Example 23, (2S)-1-fro[3,2-c]pyridin-2-ylsulfonyl-N-[[3-isopropyl-2,4-dioxo-1-[4-(trifluoromethyl)phenyl]-pyrimidin-5-yl]methyl]pyrrolidine-2-carboxamide] | 20 |
| C[C@H](NS(=O)(=O)c1cc2cc(F)ccc2o1)C(=O)NCc1cn(-c2ccc(C(F)(F)F)cc2)c(=O)n(C)c1=O [Example 6, (2S)-2-[(5-fluorobenzofuran-2-yl)sulfonylamino]-N-[[3-methyl-2,4-dioxo-1-[4-(trifluoromethyl)phenyl]-pyrimidin-5-yl]methyl]propanamide] | 540 |
| CC(C)n1cc(CNC(=O)[C@@H]2[C@@H](O)CCN2S(=O)(=O)c2cc3cc(F)ccc3o2)cc(-c2ccc(C(F)(F)F)cc2)c1=O [Example 47, (2S,3S)-1-(5-fluorobenzofuran-2-yl)sulfonyl-3-hydroxy-N-[[1-isopropyl-6-oxo-5-[4-(trifluoromethyl)phenyl]-3-pyridyl]methyl]pyrrolidine-2-carboxamide] | 230 |
| CC(C)n1c(=O)c(CNC(=O)[C@@H]2[C@@H](O)CCN2S(=O)(=O)c2cc3cc(F)ccc3o2)cn(-c2ccc(C(F)(F)F)cc2)c1=O [Example 8, (2S,3S)-1-(5-fluorobenzofuran-2-yl)sulfonyl-3-hydroxy-N-[[3-isopropyl-2,4-dioxo-1-[4-(trifluoromethyl)phenyl]pyrimidin-5-yl]methyl]pyrrolidine-2-carboxamide] | 64 |
| CC(C)n1c(=O)c(CNC(=O)C2(NS(=O)(=O)c3cc4cc(F)ccc4o3)CC2)cn(-c2ccc(C(F)(F)F)cc2)c1=O [Example 26] | 250 |
| CC(C)n1cc(-c2ccc(C(F)(F)F)cc2)cc(CNC(=O)[C@@H]2CCCN2S(=O)(=O)c2cc3cnccc3o2)c1=O [Example 27, (2S)-1-fro[3,2-c]pyridin-2-ylsulfonyl-N-[[1-isopropyl-2-oxo-5-[4-(trifluoromethyl)phenyl]-3-pyridyl]methyl]pyrrolidine-2-carboxamide] | 93 |
